According to PMC5407064 (Cell reports, 2017):
Changes are numbered by the printed parent chain.

Assays:
SIRT1 = molecular target: T1, SIRT1 (Homo sapiens, UniProt Q96EB6); test: SIRT1 activation assay; format: biochemical
T1 sequence (Q96EB6 2-747): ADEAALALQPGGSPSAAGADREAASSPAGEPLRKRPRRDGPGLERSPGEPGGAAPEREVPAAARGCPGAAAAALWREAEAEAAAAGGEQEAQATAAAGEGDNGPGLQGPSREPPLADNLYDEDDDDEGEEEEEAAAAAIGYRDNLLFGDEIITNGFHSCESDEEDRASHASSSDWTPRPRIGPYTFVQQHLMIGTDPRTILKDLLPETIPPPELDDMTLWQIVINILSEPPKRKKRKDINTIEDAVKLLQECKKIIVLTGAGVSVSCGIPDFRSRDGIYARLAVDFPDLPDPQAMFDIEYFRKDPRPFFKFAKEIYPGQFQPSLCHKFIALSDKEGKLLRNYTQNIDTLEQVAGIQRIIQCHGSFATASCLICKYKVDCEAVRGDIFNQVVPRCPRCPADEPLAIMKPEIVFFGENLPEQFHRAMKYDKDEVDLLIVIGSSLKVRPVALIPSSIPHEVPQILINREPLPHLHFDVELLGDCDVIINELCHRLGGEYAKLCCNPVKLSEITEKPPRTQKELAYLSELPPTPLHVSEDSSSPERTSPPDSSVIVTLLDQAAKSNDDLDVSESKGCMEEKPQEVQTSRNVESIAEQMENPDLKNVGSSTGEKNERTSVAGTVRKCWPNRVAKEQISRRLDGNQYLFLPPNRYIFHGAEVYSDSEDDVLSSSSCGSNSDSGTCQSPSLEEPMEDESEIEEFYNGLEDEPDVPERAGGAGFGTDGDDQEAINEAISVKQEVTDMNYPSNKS

SIRT1 K444E = molecular target: T2, SIRT1 K444E (Homo sapiens, UniProt Q96EB6, K444E); test: steady-state kinetics; format: biochemical
T2 sequence (Q96EB6 2-747 K444E): T1 sequence (Q96EB6 2-747) with K443E

SMILES | SIRT1 activation assay (Fig. S4C); activation peak concentration (SIRT1) | steady-state kinetics (KM, kcat), FDL SIRT1 assay with varied NAD+ (SIRT1 K444E)
Oc1ccc(/C=C/c2cc(O)cc(O)c2)cc1 [resveratrol] | 1 mM | –
NC(=O)c1ccc[n+]([C@@H]2O[C@H](COP(=O)([O-])OP(=O)(O)OC[C@H]3O[C@@H](n4cnc5c(N)ncnc54)[C@H](O)[C@@H]3O)[C@@H](O)[C@H]2O)c1 [NAD^+] | – | K444E SIRT1 is catalytically more active than WT (higher kcat) and has a significantly lower KM for both substrates
